Consider 27 compounds from US10093664B2, “Bicyclo[1.1.1]pentane inhibitors of dual leucine zipper (DLK) kinase for the treatment of disease” (priority 2016, dated 2018).

pIC50, pKd: −log10 of the molar value. Where two headings read alike, the source gives them in different places.

Assay [1] addresses T1, human DLK (Homo sapiens (Human), UniProt Q12852). The experiment in a line: biochemical. It is filed as binding.
Description: The DLK dissociation constants (Kd) have been determined in the KINOMEscan KdELECT Service at DiscoveRx.
A fusion protein of full length of human DLK (amino acids 1-859) and the DNA binding domain of NFkB was expressed in transiently transfected HEK293 cells. From these HEK 293 cells, extracts were prepared in M-PER extraction buffer (Pierce) in the presence of Protease Inhibitor Cocktail Complete (Roche) and Phosphatase Inhibitor Cocktail Set II (Merck) per manufacturers' instructions. The DLK fusion protein was labeled with a chimeric double-stranded DNA tag containing the NFkB binding site (5′-[sequence]-3′) fused to an amplicon for qPCR readout, which was added directly to the expression extract (the final concentration of DNA-tag in the binding reaction is 0.1 nM).
The liganded beads were blocked with excess biotin and washed with blocking buffer (SeaBlock (Pierce), 1% BSA, 0.05% Tween 20, 1 mM DTT) to remove unbound ligand and to reduce nonspecific binding.
Extracts were used directly in binding assays without any enzyme purification steps at a ≥10,000-fold overall stock dilution (final DNA-tagged enzyme concentration <0.1 nM). Extracts were loaded with DNA-tag and diluted into the binding reaction in a two step process. First extracts were diluted 1:100 in 1× binding buffer (PBS/0.05% Tween 20/10 mM DTT/0.1% BSA/2 μg/ml sonicated salmon sperm DNA) containing 10 nM DNA-tag. This dilution was allowed to equilibrate at room temperature for 15 minutes and then subsequently diluted 1:100 in 1× binding buffer. Test compounds were prepared as 111× stocks in 100% DMSO. Kds were determined using an 11-point 3-fold compound dilution series with three DMSO control points. […] The compounds were then diluted directly into the assays such that the final concentration of DMSO was 0.9%. All reactions performed in polypropylene 384-well plates. Each was a final volume of 0.02 mL. Assays were incubated with shaking for 1 hour at room temperature. Then the beads were pelleted and washed with wash buffer (1×PBS, 0.05% Tween 20) to remove displaced kinase and test compound. […] The kinase concentration in the eluates was measured by qPCR. qPCR reactions were assembled by adding 2.5 μL of kinase eluate to 7.5 μL of qPCR master mix containing 0.15 μM amplicon primers and 0.15 μM amplicon probe. The qPCR protocol consisted of a 10 minute hot start at 95° C., followed by 35 cycles of 95° C. for 15 seconds, 60° C. for 1 minute.
Test compounds were prepared as 11× stocks in 100% DMSO. Kds were determined using an 11-point 3-fold compound dilution series with three DMSO control points. […] The compounds were then diluted directly into the assays such that the final concentration of DMSO was 0.9%. The Kds were determined using a compound top concentration of 30,000 nM. Kd measurements were performed in duplicate.
Binding constants (Kds) were calculated with a standard dose-response curve using the Hill equation:
The Hill Slope was set to −1.
Assay [2] deals with T1, human DLK. In words: cell-based. The note with it: p-cJun (Ser63).
Description: HEK293 cells stably transfected with a Dox-inducible human DLK were plated into a 384-well plate in 20 μl (40,000 cells/well) of DMEM medium (without phenol red) containing 10% fetal bovine serum, 1.5 μg/ml doxycycline and 1 μg/ml puromycin. The cells as negative control were grown in the absence of doxycycline. The plate was incubated at 37° C., 5% CO2 for 20 h, before DMSO (control) or compounds diluted in medium were added. The cells were incubated at 37° C. for an additional 5 h, followed by lysis and the addition detection antibodies from p-cJun (Ser63) cellular assay kit (Cisbio) per manufacturer protocol. The standard dose response curves were fitted by Genedata Screener software using the variable-slope model: Signal=Signalnegative control+(SignalDMSO control−Signalnegative control)/(1+(IC50/Dose)^Hill slope). Only signal and dose in the equation were treated as known values.
Setting [3] is: Table 2b DLK activity (global), read-out: Kd.
The mark [4] stands for this setting: Table 2b (global), additional assay runs on multiple batches, includes Table 2a data in the averaging, HEK293, read-out: Cell IC50.

A word on the pKd: it is the Kd on a negative log10 scale, so that one unit is a factor of ten. In general, pIC50 refers to −log10 of the IC50, conventionally taken in molar units. With `CCC(C)c1nc(-c2cnc(N)c(OC(F)(F)F)c2)cn1C12CC(N3CCOCC3)(C1)C2` (centres unmarked) [Example 49, 5-(2-(sec-butyl)-1-(3-morpholinobicyclo[1.1.1]pentan-1-yl)-1H-imidazol-4-yl)-3-(trifluoromethoxy)pyridin-2-amine], the pKd in assay [1] (setting [3]) is 8.07. The negative logarithm of the IC50 (pIC50) in assay [2] (setting [4]) was 6.54.

Consider `FCCn1ccc2ncc(-c3cn(C45CC(N6CCOCC6)(C4)C5)c(C4CC4)n3)cc21` [Example 21, 4-(3-(2-cyclopropyl-4-(1-(2-fluoroethyl)-H-pyrrolo[3,2-b]pyridin-6-yl)-H-imidazol-1-yl)bicyclo[1.1.1]pentan-1-yl)morpholine, bis(2,2,2-trifluoroacetate)], for which the negative-log Kd (pKd) in assay [1] (setting [3]) was 6.48. For the same compound, the pIC50 in assay [2] (setting [4]) is 5.23.

In the case of `Nc1ncc(-c2cn(C34CC(N5CCOCC5)(C3)C4)c(C(O)C(F)(F)F)n2)cc1C(F)(F)F` (single isomer, unassigned) [Example 69a, 1-(4-(6-amino-5-(trifluoromethyl)pyridin-3-yl)-1-(3-morpholinobicyclo[1.1.1]pentan-1-yl)-1H-imidazol-2-yl)-2,2,2-trifluoroethan-1-ol], the pKd in assay [1] (setting [3]) is 9.44. Also, the pIC50 in assay [2] (setting [4]) was 7.44.

On to `Nc1ncc(-c2cn(C34CC(N5CCOCC5)(C3)C4)c(CC3CC3)n2)cc1OC(F)F` [Example 36, 5-(2-(cyclopropylmethyl)-1-(3-morpholinobicyclo[1.1.1]pentan-1-yl)-1H-imidazol-4-yl)-3-(difluoromethoxy)pyridin-2-amine], for which the negative-log Kd (pKd) in assay [1] (setting [3]) was 7.66. Further, the pIC50 in assay [2] (setting [4]) was 6.30.

Regarding `CC(C)(C)Cc1nc(-c2cnc(N)c(C(F)(F)F)c2)cn1C12CC(N3CCOCC3)(C1)C2` [Example 40, 5-(1-(3-morpholinobicyclo[1.1.1]pentan-1-yl)-2-neopentyl-1H-imidazol-4-yl)-3-(trifluoromethyl)pyridin-2-amine], the negative logarithm of the Kd (pKd) in assay [1] (setting [3]) is 7.18. Moreover, the pIC50 in assay [2] (setting [4]) was 5.61.

For `COCCN(CCOC)C12CC(n3cc(-c4cnc(N)c(OC(F)(F)F)c4)nc3C3CC3)(C1)C2` [Example 25, 5-(1-(3-(bis(2-methoxyethyl)amino)bicyclo[1.1.1]pentan-1-yl)-2-cyclopropyl-1H-imidazol-4-yl)-3-(trifluoromethoxy)pyridin-2-amine], the pKd in assay [1] (setting [3]) is 8.19. Besides, the pIC50 in assay [2] (setting [4]) was 6.41.

As for `Nc1ncc(-c2cn(C34CC(C3)C4)c([C@@H](O)C(F)(F)F)n2)cc1C(F)(F)F` (single isomer, unassigned) [Example 6b], in assay [1] (setting [3]), the pKd is 9.13. Also, the pIC50 in assay [2] (setting [4]) is 7.41.

For `CC(C)c1nc(-c2cnc(N)c(OC(F)F)c2)cn1C12CC(N3CCOCC3)(C1)C2` [Example 38, 3-(difluoromethoxy)-5-(2-isopropyl-1-(3-morpholinobicyclo[1.1.1]pentan-1-yl)-1H-imidazol-4-yl)pyridin-2-amine], in assay [1] (setting [3]), the pKd was 7.72. In assay [2] (setting [4]), the negative logarithm of the IC50 (pIC50) was 6.15.

Take `CC(C)Cc1nc(-c2cnc(N)c(OC(F)(F)F)c2)cn1C12CC(N3CCOCC3)(C1)C2` [Example 45, 5-(2-isobutyl-1-(3-morpholinobicyclo[1.1.1]pentan-1-yl)-1H-imidazol-4-yl)-3-(trifluoromethoxy)pyridin-2-amine]: the pKd in assay [1] (setting [3]) was 7.82. Moreover, the pIC50 in assay [2] (setting [4]) is 6.12.

In the case of `Nc1ncc(-c2cn(C34CC(N5CCOCC5)(C3)C4)c(C3CC3)n2)cc1C(F)(F)F` [Example 4], the pKd in assay [1] (setting [3]) is 8.08; in assay [1] (read-out: Avg DLK Kd), 7.89. Also, the pIC50 in assay [2] (Table 2a, HEK293 cells, Dox-inducible human DLK, 5 h compound, read-out: Avg Phospho-cJun Cell IC50) is 6.44; in assay [2] (setting [4]), 6.40.

Consider `CN1CCN(C23CC(n4cc(-c5cnc(N)c(OC(F)F)c5)nc4CC4CC4)(C2)C3)CC1` [Example 73, 5-(2-(cyclopropylmethyl)-1-(3-(4-methylpiperazin-1-yl)bicyclo[1.1.1]pentan-1-yl)-1H-imidazol-4-yl)-3-(difluoromethoxy)pyridin-2-amine], for which the pKd in assay [1] (setting [3]) was 7.74. The negative-log IC50 (pIC50) in assay [2] (setting [4]) was 6.20.

Regarding `CN1CCN(C23CC(n4cc(-c5cnc(N)c(C(F)(F)F)c5)nc4C4CC4)(C2)C3)CC1` [Example 75, 5-(2-cyclopropyl-1-(3-(4-methylpiperazin-1-yl)bicyclo[1.1.1]pentan-1-yl)-1H-imidazol-4-yl)-3-(trifluoromethyl)pyridin-2-amine], in assay [1] (setting [3]), the pKd is 8.12. In addition, the pIC50 in assay [2] (setting [4]) was 6.59.

`CCC(C)c1nc(-c2cnc(N)c(OC(F)F)c2)cn1C12CC(N3CCOCC3)(C1)C2` (centres unmarked) [Example 51, 5-(2-(sec-butyl)-1-(3-morpholinobicyclo[1.1.1]pentan-1-yl)-1H-imidazol-4-yl)-3-(difluoromethoxy)pyridin-2-amine]: the negative logarithm of the Kd (pKd) in assay [1] (setting [3]) is 7.68. Also, in assay [2] (setting [4]), the pIC50 is 6.12.

On to `COCCN(C)C12CC(n3cc(-c4cnc(N)c(OC(F)(F)F)c4)nc3C3CC3)(C1)C2` [Example 24, 5-(2-cyclopropyl-1-(3-((2-methoxyethyl)(methyl)amino)bicyo[1.1.1]pentan-1-yl)-1H-imidazol-4-yl)-3-(trifluoromethoxy)pyridin-2-amine], for which the negative-log Kd (pKd) in assay [1] (setting [3]) was 8.17. Moreover, in assay [2] (setting [4]), the pIC50 is 6.26.

On to `CC(C)(C)Cc1nc(-c2cnc(N)c(OC(F)(F)F)c2)cn1C12CC(N3CCOCC3)(C1)C2` [Example 39, 5-(1-(3-morpholinobicyclo[1.1.1]pentan-1-yl)-2-neopentyl-1H-imidazol-4-yl)-3-(trifluoromethoxy)pyridin-2-amine], for which the pKd in assay [1] (setting [3]) is 6.68. For the same compound, in assay [2] (setting [4]), the pIC50 is 5.39.

As to `Nc1ncc(-c2cn(C34CC(C3)C4)c(CO)n2)cc1C(F)(F)F` [Example 58, (4-(6-amino-5-(trifluoromethyl)pyridin-3-yl)-1-(bicyclo[1.1.1]pentan-1-yl)-1H-imidazol-2-yl)methanol], the pKd in assay [1] (setting [3]) is 7.74. Also, the negative-log IC50 (pIC50) in assay [2] (setting [4]) is 6.07.

In the case of `Nc1ncc(-c2cn(C34CC(N5CCOCC5)(C3)C4)c(C3COC3)n2)cc1OC(F)(F)F` [Example 31, 5-(1-(3-morpholinobicyclo[1.1.1]pentan-1-yl)-2-(oxetan-3-yl)-1H-imidazol-4-yl)-3-(trifluoromethoxy)pyridin-2-amine], the pKd in assay [1] (setting [3]) was 6.77. The pIC50 in assay [2] (setting [4]) is 5.59.

Consider `Nc1ncc(-c2cn(C34CC(N5CCN(CCF)CC5)(C3)C4)c(C3CC3)n2)cc1OC(F)(F)F` [Example 17, 5-(2-cyclopropyl-1-(3-(4-(2-fluoroethyl)piperazin-1-yl)bicyclo[1.1.1]pentan-1-yl)-1H-imidazol-4-yl)-3-(trifluoromethoxy)pyridin-2-amine], for which the pKd in assay [1] (setting [3]) is 8.16. Moreover, the pIC50 in assay [2] (setting [4]) is 6.55.

As for `Nc1ncc(-c2cn(C34CC(N5CCOCC5)(C3)C4)c(C3CCC3)n2)cc1OC(F)(F)F` [Example 43, 5-(2-cyclobutyl-1-(3-morpholinobicyclo[1.1.1]pentan-1-yl)-1H-imidazol-4-yl)-3-(trifluoromethoxy)pyridin-2-amine], the pKd in assay [1] (setting [3]) is 7.49. The pIC50 in assay [2] (setting [4]) was 6.22.

Turning to `CC(C)Cc1nc(-c2cnc(N)c(C(F)(F)F)c2)cn1C12CC(N3CCOCC3)(C1)C2` [Example 47, 5-(2-isobutyl-1-(3-morpholinobicyclo[1.1.1]pentan-1-yl)-1H-imidazol-4-yl)-3-(trifluoromethyl)pyridin-2-amine], the pKd in assay [1] (setting [3]) is 8.22. In assay [2] (setting [4]), the pIC50 is 6.18.

For the compound `CCCN1CCN(C23CC(n4cc(-c5cnc(N)c(OC(F)(F)F)c5)nc4[C@@H](O)C(C)C)(C2)C3)CC1` [Example 10, (S)-1-(4-(6-amino-5-(trifluoromethoxy)pyridin-3-yl)-1-(3-(4-(propyl)piperazin-1-yl)bicyclo[1.1.1]pentan-1-yl)-1H-imidazol-2-yl)-2-methylpropan-1-ol], the pKd in assay [1] (setting [3]) was 9.51. Besides, the pIC50 in assay [2] (setting [4]) was 7.86.

As to `Nc1ncc(-c2cn(C34CC(N5CCN(CC(F)(F)F)CC5)(C3)C4)c(C3CC3)n2)cc1OC(F)(F)F` [Example 15, 5-(2-cyclopropyl-1-(3-(4-(2,2,2-trifluoroethyl)piperazin-1-yl)bicyclo[1.1.1]pentan-1-yl)-1H-imidazol-4-yl)-3-(trifluoromethoxy)pyridin-2-amine], in assay [1] (setting [3]), the pKd is 7.74. Moreover, the pIC50 in assay [2] (setting [4]) is 6.27.

Turning to `Nc1ncc(-c2cn(C34CC(C3)C4)c(C(O)C3CC3)n2)cc1OC(F)(F)F` (centres unmarked) [Example 56, (4-(6-amino-5-(trifluoromethoxy)pyridin-3-yl)-1-(bicyclo[1.1.1]pentan-1-yl)-1H-imidazol-2-yl)(cyclopropyl)methanol], in assay [1] (setting [3]), the pKd is 8.29. The pIC50 in assay [2] (setting [4]) is 6.56.

Regarding `CN1CCN(C23CC(n4cc(-c5cnc(N)c(OC(F)(F)F)c5)nc4C4CC4)(C2)C3)C(=O)C1` [Example 23, 1-(3-(4-(6-amino-5-(trifluoromethoxy)pyridin-3-yl)-2-cyclopropyl-1H-imidazol-1-yl)bicyclo[1.1.1]pentan-1-yl)-4-methylpiperazin-2-one], the pKd in assay [1] (setting [3]) was 7.77. Also, the pIC50 in assay [2] (setting [4]) was 6.33.

Take `CN1CCN(C23CC(n4cc(-c5cnc(N)c(OC(F)(F)F)c5)nc4CC4CC4)(C2)C3)CC1` [Example 72, 5-(2-(cyclopropylmethyl)-1-(3-(4-methylpiperazin-1-yl)bicyclo[1.1.1]pentan-1-yl)-1H-imidazol-4-yl)-3-(trifluoromethoxy)pyridin-2-amine]: the pKd in assay [1] (setting [3]) is 7.72. In addition, the pIC50 in assay [2] (setting [4]) is 5.94.

Regarding `Nc1ncc(-c2cn(C34CC(N5CCS(=O)(=O)CC5)(C3)C4)c(C3CC3)n2)cc1OC(F)(F)F` [Example 13, 4-(3-(4-(6-amino-5-(trifluoromethoxy)pyridin-3-yl)-2-cyclopropyl-1H-imidazol-1-yl)bicyclo[1.1.1]pentan-1-yl)thiomorpholine 1,1-dioxide], the pKd in assay [1] (setting [3]) was 7.49. For the same compound, the pIC50 in assay [2] (setting [4]) is 6.50.

For `CC(C)c1nc(-c2cnc(N)c(C(F)(F)F)c2)cn1C12CC(C1)C2` [Example 52, 5-(1-(bicyclo[1.1.1]pentan-1-yl)-2-isopropyl-1H-imidazol-4-yl)-3-(trifluoromethyl)pyridin-2-amine], the pKd in assay [1] (setting [3]) is 7.31. In addition, in assay [2] (setting [4]), the pIC50 was 6.07.
